Source: patent US12180252B2, “Peptide derived from PEP27 peptide and uses thereof” (priority 2021, dated 2024)
Converted amounts (≈) assume the structure as drawn. Where a SMILES comes first, the peptide text is derived from it.

Columns and labels:
E. coli = assay: Flow cytometry, propidium iodide staining; format: cell-based, Escherichia coli; details: E. coli, flow cytometry
Procedure: In order to confirm whether the peptide prepared by the method of above 1 acts on the bacterial membrane, PEP27-2 peptide having better antimicrobial activity than the parental peptide was analyzed through flow cytometry.
Thereafter, the supernatant was removed using a centrifuge (10,000 rpm) and stained with propidium iodide (PI) at a concentration of 10 μg/ml at 4° C. for 30 minutes. Then, the unbound propidium iodide (PI) was removed using the centrifuge, and 1 ml of physiological saline (PBS) was added to remove agglomeration of the cells. Thereafter, effects of the peptide on the bacterial membrane were determined using a Bechman flow cytometer.

[1] = test system: E. coli and Staphylococcus aureus cells; assay: Scanning electron microscope analysis of bacterial membrane; format: cell-based, Escherichia coli; details: at MIC, 37° C., 1 hour
Procedure: In order to confirm whether the synthetic peptides of the present invention prepared by the method of above 1 would damage the bacterial cell membrane, it was investigated through a scanning electron microscope.
As a control, a strain not treated with peptide was used. After incubation, the cells were recovered, treated with 2.5% glutaraldehyde at 4° C. for 18 hours, and washed twice with PBS buffer solution. The fixed cells were dehydrated for 10 minutes using 100% ethanol and diluted ethanol (50%, 70%, 90% and 100%) in sequential order, and then the samples were dried and coated with platinum, followed by observation through a low vacuum scanning electron microscope.

plasmid DNA (pRSETB) = assay: Peptide-DNA binding by agarose gel electrophoresis; details: peptide/DNA ratios 0.25:1 to 4:1, 300 ng plasmid DNA
Procedure: Specifically, 300 ng of plasmid DNA (pRSETB) was reacted with the peptide by a relative ratio (reactions were performed at peptide/DNA ratios of DNA alone, 0.25:1, 0.5:1, 1:1, 1.5:1, 2:1, 3:1, 4:1, respectively) at 37° C. for 10 minutes, followed by conducting electrophoresis on a 1% agarose gel, staining the same with ethidium bromide (EtBr) and monitoring through UV.

E. coli ATCC 25922 = assay: Cytoplasmic membrane depolarization (DiSC3-5); format: cell-based, Escherichia coli; details: 4×MIC
Procedure: We also used E. coli cells and the membrane potential-sensitive cyanine dye 3,3′-dipropylthiadicarbocyanine iodide (DiSC3-5) to test the ability of PEP27 and PEP27-2 to depolarize Gram-negative bacterial membranes (FIG. 15B to FIG. 15E).
Depolarization of the cytoplasmic membrane by the peptides was measured using the membrane potential-sensitive dye DiSC3-5 (Merck KGaA, n=4 per condition) with intact E. coli cells as previously described. 66 Mid-log-phase E. coli ATCC 25922 cells were washed with 5 mM HEPES buffer containing 20 mM glucose and resuspended to an OD600 of 0.05 in 5 mM HEPES buffer containing 20 mM glucose and 0.1 M KCl. The cell suspension was incubated with 1 μM DiSC3-5 for 1 h. […] Fluorescence was measured at excitation and emission wavelengths of 622 and 670 nm, respectively.
When the bacterial cytoplasmic membrane is disrupted, the membrane potential dissipates E. coli, and DiSC3-5 is released into the culture medium, resulting in a fluorescence increase. After stabilization for 10 min by treatment with DiSC3-5, AMPs were added, and the plasma membrane potential of E. coli was confirmed by monitoring the change in fluorescence intensity for another 30 min.

[2] = Calcein release from LUVs; details: P/L ratio of 0.05
Procedure: To examine the mechanism of action of PEP27 and PEP27-2, we evaluated the changes in bacterial cell membrane permeability by monitoring the release of calcein, a fluorescent marker, from calcein entrapped LUVs with different lipid bilayer compositions.
Peptide-induced membrane permeabilization was quantified by monitoring calcein release from LUVs (n=3 per condition). Different calcein-entrapped LUVs [PE/PG (7/3) or PC/CH/SM (1/1/1)] were prepared as described above, except that the dry lipid films were resuspended in 1 mL of PBS (pH 7.2) containing 70 mM calcein. Gel filtration chromatography on a Sephadex G-50 column was performed to separate free calcein from that entrapped in LUVs. Thereafter, the LUVs with entrapped calcein were mixed with peptides at various ratios, and the fluorescence of the released calcein was measured with a SpectraMax M3 Multi-Mode Microplate Reader (Molecular Devices, Sunnyvale, CA, USA) at excitation and emission wavelengths of 480 and 520 nm, respectively.

E. coli ATCC25922 = format: cell-based, Escherichia coli; details: ATCC25922, 18 h
E. coli CCARM1229 = format: cell-based, Escherichia coli; details: E. coli CCARM1229, antibiotics-tolerant; 37° C., 18 hours
[3] = test system: 11 types of strains (Staphylococcus aureus, Pseudomonas erujinosa); assay: MIC, summary over the strains of Table 7; format: cell-based
Procedure: In order to compare the antimicrobial activity of PEP27-2, which is the peptide having the most excellent antimicrobial activity among the peptides prepared by the method of above 1, with existing antibiotics, MIC concentrations of specific antibiotics were investigated with regard to the same gram-positive bacteria (Staphylococcus aureus) and the same gram-negative bacteria (Pseudomonas erujinosa) stains. Specifically, subject strains were prepared by the method of above 2, and were treated with the antibiotics, that is, meropenem, ceftazidime, ceftriaxone or vancomycin, respectively, followed by determining MICs of the antibiotics.

S. aureus ATCC 25923 = assay: Time-kill kinetics; format: cell-based, Staphylococcus aureus; details: at MIC, after 20 min of treatment
Procedure: Time-killing kinetics were analyzed for E. coli ATCC 25922 and S. aureus ATCC 25923 in the presence of PEP27-2 at their respective MICs. The bacterial cells were cultured overnight until they reached the exponential growth phase; they were then incubated at 37° C. for an additional 10 min from 0 min to 1 h. The total bacterial population was then stained with QUANTOM total cell staining dye, after which the stained cells were mixed with QUANTOM cell loading buffer and loaded into QUANTOM M50 Slides. The slides were centrifuged using the QUANTOM centrifuge to evenly distribute them throughout the counting chamber and ensure accurate cell counts. Intracellular fluorescence was detected using the QUANTOM Tx microbial cell counter, which captures and counts cells automatically (Logos Biosystems, Gyeonggi-do, South Korea).

SMILES	bacterial membrane destruction (E. coli)	bacterial cell membrane damage by SEM [1]	binding to DNA (gel electrophoresis) (plasmid DNA (pRSETB))	DiSC3-5 fluorescence intensity (membrane depolarization) (E. coli ATCC 25922)	maximum calcein leakage [2]	Minimal inhibitory concentration (E. coli ATCC25922)	Minimal inhibitory concentration (E. coli CCARM1229)	MIC range over the strains of Table 7 [3]	decrease in S. aureus cell viability (S. aureus ATCC 25923)
CC[C@H](C)[C@H](NC(=O)CN)C(=O)NCC(=O)N[C@@H](C)C(=O)N[C@H](C(=O)N[C@@H](CC(C)C)C(=O)N[C@@H](CCCCN)C(=O)N[C@H](C(=O)N[C@@H](CC(C)C)C(=O)N[C@H](C(=O)N[C@H](C(=O)NCC(=O)N[C@@H](CC(C)C)C(=O)N1CCC[C@H]1C(=O)N[C@@H](C)C(=O)N[C@@H](CC(C)C)C(=O)N[C@H](C(=O)N[C@@H](CO)C(=O)N[C@@H](Cc1c[nH]c2ccccc12)C(=O)N[C@H](C(=O)N[C@@H](CCCCN)C(=O)N[C@@H](CCCNC(=N)N)C(=O)N[C@@H](CCCCN)C(=O)N[C@@H](CCCNC(=N)N)C(=O)N[C@@H](CCC(N)=O)C(=O)N[C@@H](CCC(N)=O)C(N)=O)[C@@H](C)CC)[C@@H](C)CC)[C@@H](C)O)[C@@H](C)O)C(C)C)C(C)C [Melittin, reference compound]	found to have cell membrane destruction ability	significant membrane damage	not bound to any DNA	~140	100%	–	–	–	–
CSCC[C@H](N)C(=O)N[C@@H](Cc1c[nH]c2ccccc12)C(=O)N[C@@H](CCCCN)C(=O)N[C@@H](Cc1c[nH]c2ccccc12)C(=O)N[C@@H](Cc1ccccc1)C(=O)N[C@@H](Cc1c[nH]cn1)C(=O)N[C@@H](CC(N)=O)C(=O)N[C@H](C(=O)N[C@@H](CC(C)C)C(=O)N[C@@H](CO)C(=O)N[C@@H](Cc1c[nH]c2ccccc12)C(=O)NCC(=O)N[C@@H](Cc1c[nH]c2ccccc12)C(=O)N[C@@H](CC(C)C)C(=O)N[C@@H](CC(C)C)C(=O)N[C@@H](C)C(=O)N[C@@H](CC(=O)O)C(=O)N[C@@H](CCCCN)C(=O)N[C@@H](CCCNC(=N)N)C(=O)N1CCC[C@H]1C(=O)N[C@@H](C)C(=O)N[C@@H](CCCNC(=N)N)C(=O)N[C@@H](CC(=O)O)C(=O)N[C@@H](Cc1ccc(O)cc1)C(=O)N[C@@H](CC(N)=O)C(=O)N[C@@H](CCCNC(=N)N)C(=O)N[C@@H](CCCCN)C(N)=O)C(C)C [PEP27-2] (H-MWKWFHNVLSWGWLLADKRPARDYNRK-NH2)	–	–	–	–	–	4 µM (≈ 13.9 µg/mL)	4 µM (≈ 13.9 µg/mL)	2 to 4 µM	97.48%
